Tested on: Hepatic metastases
Experiment: Induced hepatic metastases after intrasplenic tumor cell injection
Format: in vivo, C57BL/6 mice
Conditions: DAP 100 mg/kg; for Metastic foci: mean ± S.E., n=8; for % Reduction: reduction in metastic foci from PBS control group
Procedure: Hepatic metastases were induced as follows. C57BL/6 mice were anesthetized by […] of pentobarbital. The mice were prepped with 70% ethanol, dried with a sterile gauze, and then, with the use of sterile scissors, a small left subcostal incision was made. The spleen was exposed, and its short gastric vessels along with the gastrosplenic ligament were cut, allowing the spleen to be brought onto the animal's abdominal wall attached to its splenic pedicle. […] of a single cell suspension containing 3 x 10⁵ tumor cells in HBSS was injected into the upper pole of the exposed extraabdominal spleen. After the injection was completed, the needle was removed, and a period of 1 minute was allowed to elapse to permit tumor cells to be flushed into the portal circulation. The splenic pedicle was clipped, the spleen was removed, and splenic pedicle was dropped i.p. The abdominal wall musculature and skin were closed in one layer. The animals were randomly allocated to their respective treatment groups and were allowed to recover. By day 3 after tumor injection, micrometastases were apparent histologically.
Each group was then treated with DAP, intraperitonealy, subcutaneously, or orally. A control group was treated with phosphate buffered saline (PBS). Metastic foci was determined and the percent reduction in metastic foci from the control group was determined with each group treated with DAP as follows: […]

What does the source list for `CC(=O)NCCCCNC(C)=O` [DAP, Diacetylputrescine]?
Metastic foci (d1-10, i.p.): 40.8 ± 14.7; % Reduction (d1-10, i.p.): 65.9%; Metastic foci (d1-10, p.o.): 27.2 ± 7.1; % Reduction (d1-10, p.o.): 77.3%; Metastic foci (d1-10, s.c.): 31.0 ± 8.4; % Reduction (d1-10, s.c.): 74.1%

Source: patent EP0373623A2, “Pharmaceutical compositions useful in potentiating natural killer cell activity” (MERRELL DOW PHARMACEUTICALS INC., priority 1988, dated 1990)
